Data reported in patent US8344100B2, “Poly-epitope peptide derived from thymidylate synthase having immunological and anti-tumour activity” (Universitá degli Studi di Siena, priority 2005, dated 2013).
Where a SMILES comes first, the peptide text is derived from it.

Key:
[1] = test system: EL-4/HHD autologous leukemic cells; assay: Tumour growth in HHD mice inoculated with EL-4/HHD cells; format: in vivo, transgenic (HHD) mice; conditions: with weekly intraperitoneal 5-FU
Protocol: The results are given as the mean value ±SD of the maximum diameter.
In this study, six groups of five mice received different immunological treatments with or without chemotherapeutic treatment with 5-FU. The mice in groups A and B were administered a control peptide derived from the mumps virus (100 μg per mouse); the mice in groups C and D were administered a cocktail of the TS-1, TS-2 and TS-3 peptides (100 μg per mouse); and the mice in groups E and F were administered the TS/PP peptide (100 μg per mouse).
The mice received the first peptide administration subcutaneously at time 0, with recalls in the third and sixth week. Two weeks after the last administration, all animals were subcutaneously inoculated with 2×10^6 EL-4/HHD cells.
In order to evaluate the possible interaction between TS and the 5-FU treatment for vaccination purposes, seven days after the tumour cells inoculation, the mice in groups B, D and F underwent a chemotherapeutic treatment based on weekly intraperitoneal administration of 5-FU ([…]).

[2] = test system: MDA-MB-231, HT-29 and SW-1463 target cells; assay: Cytofluorimetric and immunoblotting analyses of target cells treated with 5-FU; format: cell-based, human; conditions: data not shown
[3] = test system: breast and colon carcinoma tumour cells; assay: Viability of target cells exposed to 5-FU (hemocytometric count); format: cell-based, human; conditions: sub-lethal doses for 48 hours
Text: The viability of the target cells exposed to 5-FU was examined by means of a hemocytometric count after staining and was never less than 90%, thus excluding the possibility that the immunosensitisation was due to the large number of dead or already degenerating cells in the cytotoxicity assay.

[4] = test system: murine TS in EL-4/HHD cells; assay: Cytofluorimetric test of TS expression in EL-4/HHD cells; format: cell-based, mouse; conditions: sub-lethal dose, constitutive expression 35%
MDA-MB-231 cells = conditions: MDA-MB-231 pretreated with 5-FU
Protocol: Cytotoxic assays. The release of radioactive chrome (^51Cr) was assayed as described in previous studies [18].
Spontaneous release was determined in the plates to which 100 μl of medium was added without effector cells. The total radioactivity released was determined after treating the target with Triton x-100. HLA was blocked by using an anti-HLA-A2 antibody (A2.69, One Lambda, Inc., Chanoga Park, Calif., USA) or the anti-class I (pan A,B,C)-HLA antibody W6.32, which were incubated with the target cells for one hour before the cytotoxicity assay. The negative control was the UPC-10 monoclonal antibody.
The cytotoxicity tests carried out using the technique of ^51Cr release were performed using target cells coming from cell lines derived from breast carcinoma (MDA-MB-231) and colon carcinoma (HT-29 and SW-1463), before and after treatment with sub-lethal doses of 5-FU.

[5] = test system: HT-29 cells transfected with the HLA-A(*)02.01 gene; assay: 51Cr release cytotoxicity test of CTL lines against colon carcinoma cells HT-29; format: cell-based; conditions: HT-29 pretreated with 5-FU
Protocol: (§1) The lymphocyte lines generated in vitro using TS/PP were capable of destroying the target cells derived from colon carcinoma (the HT-29 and SW-1463 cell lines).
HLA-A (*)02.01 expression was induced by gene transfection on the membrane of HT29 target cells before every experiment. Specific lysis was calculated as follows: […]

SW-1463 cells = assay: 51Cr release cytotoxicity test of CTL lines against colon carcinoma cells SW-1463; format: cell-based; conditions: SW-1463 pretreated with 5-FU
Text: as §1

[6] = Anatomo-pathological study of organs (autoimmunity, toxicity); format: in vivo, transgenic (HHD) mice; conditions: lung, liver, spleen, kidney, brain, skin and mucosa
[7] = target: T1, HLA-A(*)02.01 molecule on cells (human); assay: T2 test (flow cytometry, HLA-A*02:01 on T2 cells)
T1 construct: whole, on cells; Class I MHC molecule on cells; also called HLA-A2; HLA-A2.1

[8] = target: T1, HLA-A(*)02.01 molecule on cells; assay: T2 test (flow cytometry of HLA expression on T2 cells after exposure to the peptide)

O=c1[nH]cc(F)c(=O)[nH]1 [5-FU, 5-fluorouracil]
Neoplastic growth [1]: did not change neoplastic growth in any way
TS expression ([2]; MDA-MB-231, HT-29, SW-1463): significant increase
Class I HLA expression [2]: did not induce any change
Viability of the target cells [3]: ≥ 90%
Expression of murine TS [4]: 55-70%

CC[C@H](C)[C@H](NC(=O)[C@H](CCSC)NC(=O)[C@@H](N)Cc1ccc(O)cc1)C(=O)N[C@@H](C)C(=O)N[C@@H](Cc1c[nH]cn1)C(=O)N[C@H](C(=O)N[C@H](C(=O)NCC(=O)N[C@@H](CC(C)C)C(=O)N[C@@H](Cc1ccccc1)C(=O)N[C@@H](CC(C)C)C(=O)N[C@@H](CC(=O)O)C(=O)N[C@@H](CO)C(=O)N[C@@H](CC(C)C)C(=O)NCC(=O)N[C@@H](Cc1ccccc1)C(=O)N[C@@H](CO)C(=O)N[C@H](C(=O)N[C@H](C(=O)N[C@@H](CC(C)C)C(=O)NCC(=O)N[C@@H](CC(=O)O)C(=O)N[C@@H](C)C(=O)N[C@@H](Cc1c[nH]cn1)C(=O)N[C@H](C(=O)N[C@@H](Cc1ccc(O)cc1)C(=O)N[C@@H](CC(C)C)C(=O)O)[C@@H](C)CC)[C@@H](C)O)[C@@H](C)O)[C@@H](C)O)[C@@H](C)CC [TS/PP] (H-YMIAHITGLFLDSLGFSTTLGDAHIYL-OH; N-terminus and C-terminus assumed)
Lytic activity after target cell pre-treatment with sub-lethal 5-FU doses (MDA-MB-231 cells): significantly increased
Lysis after target cell pre-treatment with sub-lethal 5-FU doses [5]: significantly increased
Lysis after target cell pre-treatment with sub-lethal 5-FU doses (SW-1463 cells): significantly increased
Degeneration, autoimmunity or toxicity [6]: do not indicate any autoimmunity or toxicity phenomena

YMIAHITGL (Synthetic 9-mer) [TS-2 peptide (YMIAHITGL)]
binding result [7]: binds

YMIAHITGLFLDSLGFSTTLGDAHIYL (also called 28-amer peptide) [TS/PP poly-epitope peptide (YMIAHITGLFLDSLGFSTTLGDAHIYL)]
binding result [8]: no binding

TLGDAHIYL (Synthetic 9-mer) [TS-1 peptide (TLGDAHIYL)]
binding result [7]: binds

FLDSLGFST (Synthetic 9-mer) [TS-3 peptide (FLDSLGFST)]
binding result [7]: binds
